The supplement of paper PMC10307832

Legend:
Assay in all cases: relative viability (nuclei count vs DMSO), 5 days (fraction); higher = more cells survive
Venetoclax + Bortezomib = compound: CC1(C)CCC(CN2CCN(c3ccc(C(=O)NS(=O)(=O)c4ccc(NCC5CCOCC5)c([N+](=O)[O-])c4)c(Oc4cnc5[nH]ccc5c4)c3)CC2)=C(c2ccc(Cl)cc2)C1 [Venetoclax] + CC(C)C[C@H](NC(=O)[C@H](Cc1ccccc1)NC(=O)c1cnccn1)B(O)O [Bortezomib] (partner 0.002 µM)
Summary of the method: (§1)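 Values are medians from duplicate plates. Each reflects relative viability, defined as the nuclei count of treated wells over that of vehicle wells. Lung cancer cell lines in 1536-well plates were pin-tool dosed one day after seeding with one drug alone or with a fixed anchor-drug dose plus five library-drug doses (not always all listed) in √10 steps, then fixed, stained and imaged at 4× after 5 days.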

Venetoclax + Luminespib = compound: CC1(C)CCC(CN2CCN(c3ccc(C(=O)NS(=O)(=O)c4ccc(NCC5CCOCC5)c([N+](=O)[O-])c4)c(Oc4cnc5[nH]ccc5c4)c3)CC2)=C(c2ccc(Cl)cc2)C1 [Venetoclax] + CCNC(=O)c1noc(-c2cc(C(C)C)c(O)cc2O)c1-c1ccc(CN2CCOCC2)cc1 [Luminespib] (partner 0.01 µM)
Summary of the method: as §1

Venetoclax + Crizotinib = compound: CC1(C)CCC(CN2CCN(c3ccc(C(=O)NS(=O)(=O)c4ccc(NCC5CCOCC5)c([N+](=O)[O-])c4)c(Oc4cnc5[nH]ccc5c4)c3)CC2)=C(c2ccc(Cl)cc2)C1 [Venetoclax] + C[C@@H](Oc1cc(-c2cnn(C3CCNCC3)c2)cnc1N)c1c(Cl)ccc(F)c1Cl [Crizotinib] (partner 1 µM)
Summary of the method: as §1

Venetoclax + Vorinostat = compound: CC1(C)CCC(CN2CCN(c3ccc(C(=O)NS(=O)(=O)c4ccc(NCC5CCOCC5)c([N+](=O)[O-])c4)c(Oc4cnc5[nH]ccc5c4)c3)CC2)=C(c2ccc(Cl)cc2)C1 [Venetoclax] + O=C(CCCCCCC(=O)Nc1ccccc1)NO [Vorinostat] (partner 1 µM)
Summary of the method: as §1

Q: For UMC-11, which relative viability (Venetoclax + Bortezomib; first compound 0.01 µM) is on record?
A: 0.625

Q: What about the relative viability (Venetoclax + Bortezomib; first compound 0.03162 µM) of the same cell line?
A: 0.889

Q: And the relative viability (Venetoclax + Bortezomib; first compound 0.1 µM)?
A: 0.604

Q: What about the relative viability (Venetoclax + Bortezomib; first compound 0.3162 µM) of the same cell line?
A: 0.732

Q: And the relative viability (Venetoclax + Bortezomib; first compound 1 µM)?
A: 0.691

Q: What about the relative viability (Venetoclax + Luminespib; first compound 0.01 µM) of the same cell line?
A: 1.06

Q: What about the relative viability (Venetoclax + Luminespib; first compound 0.03162 µM) of the same cell line?
A: 0.987

Q: And the relative viability (Venetoclax + Luminespib; first compound 0.1 µM)?
A: 1.04

Q: What about the relative viability (Venetoclax + Luminespib; first compound 0.3162 µM) of the same cell line?
A: 1.02

Q: And the relative viability (Venetoclax + Luminespib; first compound 1 µM)?
A: 0.882

Q: And the relative viability (Venetoclax + Crizotinib; first compound 0.01 µM)?
A: 0.625

Q: And the relative viability (Venetoclax + Crizotinib; first compound 0.03162 µM)?
A: 0.622

Q: And the relative viability (Venetoclax + Crizotinib; first compound 0.1 µM)?
A: 0.653

Q: And the relative viability (Venetoclax + Crizotinib; first compound 0.3162 µM)?
A: 0.636

Q: And the relative viability (Venetoclax + Crizotinib; first compound 1 µM)?
A: 0.614

Q: What about the relative viability (Venetoclax + Vorinostat; first compound 0.01 µM) of the same cell line?
A: 0.329

Q: And the relative viability (Venetoclax + Vorinostat; first compound 0.03162 µM)?
A: 0.29

Q: And the relative viability (Venetoclax + Vorinostat; first compound 0.1 µM)?
A: 0.274

Q: What about the relative viability (Venetoclax + Vorinostat; first compound 0.3162 µM) of the same cell line?
A: 0.23

Q: What about the relative viability (Venetoclax + Vorinostat; first compound 1 µM) of the same cell line?
A: 0.261
